Like-named read-outs stand apart in the source and are kept apart here.
Legend:
[1] = tested on: HER2+ SKOV-3 ovarian cancer cells; assay: In vitro cytotoxicity assay (PrestoBlue), Example 9 (FIG. 8); format: cell-based; settings: Homo sapiens, SK-OV-3
Method: (§1) HER2+ SK-BR-3 breast cancer cells (ATCC), HCC1954 breast cancer cells (CRL-2338, ATCC), JIMT-1 breast cancer cells (DSMZ) and SKOV-3 ovarian cancer cells (ATCC) were cultured essentially according to the providers' instructions. After incubation with ADCs, cell viability was determined using PrestoBlue reaction using manufacturer's instructions. Cell viability data data was transferred to GraphPad Prism to determine IC50 values. Exatecan (mesylate salt) and DXd (free deruxtecan payload) were purchased from MedChemExpress.

[2] = tested on: HER2+ JIMT-1 breast cancer cells; assay: In vitro cytotoxicity assay (PrestoBlue), Example 9 (FIG. 7); format: cell-based; settings: Homo sapiens
Method: as §1

[3] = tested on: HER2+ SK-BR-3 breast cancer cells; assay: In vitro cytotoxicity assay (PrestoBlue), Example 9 (FIG. 5); format: cell-based; settings: Homo sapiens
Method: as §1

[4] = tested on: HER2+ HCC1954 breast cancer cells; assay: In vitro cytotoxicity assay (PrestoBlue), Example 9 (FIG. 6); format: cell-based; settings: Homo sapiens
Method: as §1

[5] = tested on: MOLM-13 cells; assay: MOLM-13 xenograft model; settings: for signs of toxicity: single i.v. dose, clinical signs and general behavior
Method: The study was performed at the TCDM, University of Turku, Finland, according to the appropriate ethical committee approval. Cells for inoculation to mice were prepared in vigorous exponential growth phase. 2 million MOLM-13 cells in 50% Matrigel were inoculated s.c. to the flank of each mouse (female athymic nude mice between 8-10 weeks of age). Clinical signs and general behavior of the animals were observed regularly. […] Tumor growth was followed by palpation. After caliper measurement, tumor volume was calculated according to 0.5×length×width^2. […] Mice were evenly divided into study groups, 6 mice in each group, so that each group received similar distribution of different-sized tumors and the average tumor volumes were similar in each group. Intravenous (i.v.) treatment in PBS was given once on day 1 of treatment as a single dose regimen (on day 8 after tumor inoculation). The experiment lasted to day 46 after treatment (day 54 after tumor inoculation).

[6] = Maleimide self-stabilization in storage formulation; format: physicochemical; settings: storage formulation of PBS pH 7.4
[7] = Hydrophobic interaction chromatography (HIC-HPLC) of flanvotumab ADCs; format: physicochemical; settings: closer to naked antibody = more hydrophilic
Description: Flanvotumab-deruxtecan ADC was generated essentially similarly as FLExM above using deruxtecan linker-payload (DxM, MedChemExpress, Sweden; Scheme 1.4).
HIC-HPLC analysis using TSKgel ButylNPR column was done with Äkta HPLC purifier system.

[8] = tested on: SK-MEL-30 melanoma cells; assay: SK-MEL-30 human melanoma xenograft model; format: in vivo, athymic mice; settings: single i.v. 10 mg/kg dose
Method: SK-MEL-30 human melanoma xenograft model (FIG. 4A): The animal model were performed at the University of Helsinki, Finland, according to the appropriate ethical committee approval. SK-MEL-30 melanoma cells, 2 million cells/mouse, were inoculated subcutaneously (s.c.) to athymic mice.

[9] = Aggregation status by size-exclusion chromatography (SEC-HPLC); format: physicochemical
Method: Aggregation status of FLExM01 was evaluated by size-exclusion chromatography (SEC-HPLC; FIG. 2A), showing very low aggregation with high-molecular weight aggregate level of 1.6%. Drug-to-Antibody Ratio (DAR) was determined by reversed-phase chromatography (RP-HPLC; FIG. 2B), showing homogeneous conjugation to DAR=8.

[10] = single i.v. 10 mg/kg dose, day 54 after inoculation

With `CC[C@@]1(O)C(=O)OCc2c1cc1n(c2=O)Cc2c-1nc1cc(F)c(C)c3c1c2[C@@H](NC(=O)CO)CC3` [DXd, 2-hydroxyacetoyl exatecan] the IC50 [1] was 9.5 nM, the IC50 [2] was 18 nM and the IC50 [3] was 4.3 nM. The IC50 ([4]; HCC1954) was 5 to 8 nM.

With `CC[C@@]1(O)C(=O)OCc2c1cc1n(c2=O)Cc2c-1nc1cc(F)c(C)c3c1c2[C@@H](N)CC3` [exatecan, Exatecan] the IC50 [1] was 4.7 nM, the IC50 [2] was 3.1 nM and the IC50 [3] was 0.87 nM. It also gave an IC50 ([4]; HCC1954 cells, FIG. 6, read-out: IC50) of 5 to 8 nM.

For “LNDxM: lintuzumab-deruxtecan ADC DAR=8, maleimides not stabilized; 01-03 are batches [reference compound]”, the “deaths due to tumor growth, %” value ([5]; single i.v. 10 mg/kg dose) was 17%, the “tumor-free mice at the end of the study (mice out of 6)” value [5, 10] was 2/6 and the “tumor-free mice at the end of the study, %” value [5, 10] was 33%. The “deaths due to tumor growth (mice out of 6)” value ([5]; single i.v. 10 mg/kg dose, death on day 47 after tumor inoculation) was “⅙” and the signs of toxicity [5] was “No signs of toxicity were recorded”.

With “Lintuzumab: humanized recombinant antibody produced in CHO cells; anti-CD33” the “tumor growth inhibition (in words)” value ([5]; single i.v. 10 mg/kg dose, s.c. tumors about 120 mm^3) was “only slight inhibitory activity to tumor growth” and the signs of toxicity [5] was “No signs of toxicity were recorded”.

B1: FLExM01: flanvotumab-exatecan ADC with ExM linker-payload, DAR≈8 (conjugate, chains of the INN, looked up)
VH: QVQLVQSGSELKKPGASVKISCKASGYTFTSYAMNWVRQAPGQGLESMGWINTNTGNPTYAQGFTGRFVFSMDTSVSTAYLQISSLKAEDTAIYYCAPRYSSSWYLDYWGQGTLVTVSS
VL: EIVLTQSPATLSLSPGERATLSCRASQSVSSYLAWYQQKPGQAPRLLIYDASNRATGIPARFSGSGSGTDFTLTISSLEPEDFAVYYCQQRSNWLMYTFGQGTKLEIK
modifications: exatecan ExM linker-payload, DAR 8
In the case of B1, the “maleimide self-stabilization (in words)” value [6] is reported as “self-stabilized by maleimide hydrolysis”, the HIC-HPLC elution volume [7] is reported as 6.5 mL and the toxicities observed [8] is reported as “No toxicities were observed”. The “tumor growth inhibition (in words)” value ([8]; s.c. tumors about 200 mm^3) was “inhibited markedly more in the ADC-treated mice than either the antibody-treated or non-treated mice” and the “high-molecular weight aggregate level” value ([9]; SEC-HPLC) was 1.6%.

B2: Flanvotumab: naked antibody, parent of the anti-TYRP-1 ADC (antibody, chains of the INN, looked up, V domains shown)
VH: B1 VH
VL: B1 VL
In the case of B2, the toxicities observed [8] is reported as “No toxicities were observed”.

B3: FLDxM01: Flanvotumab-deruxtecan ADC, DAR≈8 (conjugate, chains of the INN, looked up)
VH: B1 VH
VL: B1 VL
modifications: deruxtecan, DAR 8
For B3, the HIC-HPLC elution volume [7] was 7.8 mL and the “aggregates (in words)” value ([9]; MALDI-TOF MS, SEC-HPLC and RP-HPLC) was “low aggregates”.
